Results on five molecules are retold here after US20130171125A1, “Methods for the Regulation of Cellular Metabolism Through the Modulation of SIRT3 Activity” (National Institutes of Health (NIH), U.S. Dept. of Health …, priority 2010, published 2013).

One assay concerns SIRT3 KO MEFs. Description: Growth rates of SIRT3 WT and KO MEFs cultured with NAC. In kind it is cell-based, mouse. Particulars: media supplemented with 10 mM NAC. On the procedure:
(A) Nuclear extracts from shNS and shSIRT3 HEK293T cells treated with or without 10 μM MG-132 for 1 hour or 1 mM DMOG for 4 hours as indicated were immunoblotted with antibodies specific to hydroxylated HIF1α (HIF—OH) or total HIF1α. (B) Fold induction of HIF1αtarget genes in response to hypoxia (n=6) measured by qRT-PCR. The ratio of hypoxic to normoxic gene expression is shown. (C) Fold induction of Glut1 and Hk2 in response to DMOG treatment was measured by qRT-PCR and the ratio of untreated to DMOG-treated gene expression is shown (n=6). (D) The increase in ROS production with hypoxia was calculated as the fold change in ROS in hypoxic cells relative to normoxic controls. […] Significance was assessed by one-way ANOVA. […] Error bars, ±SD. Protein carbonyls (I) and lipid peroxidation (J) were measured in brown adipose tissue (BAT) of SIRT3 WT and KO mice (n=7). […] Error bars (except for growth curves), ±SEM. […]
To confirm that the metabolite patterns reflected an increase in glycolysis, lactate produced and secreted from SIRT3 WT and KO MEFs (n=5) was measured and normalized to cell number. […] To test whether this apparent increase in aerobic glycolysis supported an increase in biomass and proliferation, growth rates of the MEFs were measured by seeding SIRT3 WT and KO MEFs in six-well plates at a density of 5,000 cells/well and counting the number of cells in triplicate every 24 hours. […]

Another assay has as its system HIF1α. Description: HIF1α protein level (immunoblot) in SIRT3 WT and KO MEFs. In kind it is cell-based, mouse. Particulars: 1 mM DMOG. (A western blot detects proteins with antibodies after separation by electrophoresis.)
Another assay deals with HIF1α target genes. Nature of the assay: Expression of HIF1α target genes (qRT-PCR) in SIRT3 WT and KO MEFs. In kind it is cell-based, mouse. Particulars: DMOG treatment. (Quantitative PCR measures a nucleic acid by following its amplification.)
A further assay has as its system CAMA1 cells. Nature of the assay: Glucose uptake and lactate production in CAMA1 control or SIRT3 overexpressing cells with rotenone or etomoxir. The format is cell-based, human. Particulars: 100 nM rotenone or 50 μg/ml etomoxir. Here is the method: (A) Lactate production and (B) glucose consumption of MCF7, T47D and CAMA1 cells stably expressing empty vector or SIRT3 and cultured under hypoxia expressed as a ratio of empty-vector normoxic controls. (C) Relative glucose uptake and (D) relative lactate production in CAMA1 control or SIRT3 overexpressing cells incubated with or without 100 nM rotenone. (E) Glucose uptake and (F) lactate production in CAMA1 cell lines cultured in the presence or absence of 50 μg/ml etomoxir. (G) Immunoblots of CAMA1 cells stably expressing control vector or SIRT3-FLAG cultured at 1% oxygen for the indicated. (H) qRT-PCR of HIF1α target genes in CAMA1 cells cultured at 1% oxygen. (I) Induction of HIF1α target genes in response to hypoxia measured by qRT-PCR in CAMA1 cells. The ratio of normoxic to hypoxic gene expression in each cell line is shown. (J) Induction of HIF1α target genes in response to 1 mM DMOG treatment measured by qRT-PCR in CAMA1 cells. The ratio of untreated to DMOG-treated gene expression in each cell line is shown. Growth curves of CAMA1 cells (n=3) cultured in glucose (K) or galactose (L). Error bars, ±SD. (M) Schematic of the regulation of HIF1α and the Warburg effect by SIRT3. β-2-microglobulin was used as an endogenous control for qRT-PCR. Error bars (except for growth curves), ±SEM. (*) p<0.05; (**) p<0.01.
To examine the contribution of complex I activity or fatty acid oxidation on these phenotypes, glucose uptake and lactate production was measured in the presence of rotenone and etomoxir.
Metabolites were isolated by methanol extraction from cultured cells and analyzed by liquid chromatography-mass spectrometry (LC-MS). Lactate production was measured using the Lactate Reagent Kit (Trinity Biosciences). For immunoblotting, cell lysates and immunoprecipitations were probed with the following antibodies: Total OXPHOS antibody cocktail, complex II antibody cocktail, and OSCP (Mitosciences); Flag (Sigma); acetyl-lysine, LSD1 and hydroxylated HIF1α (Cell Signaling); SUCLA2 and GFP (Santa Cruz); GDH (USBiological); mouse HIF1α (Novus Biologicals) and human HIF 1 (BD Biosciences). The antibody recognizing murine SIRT3 was raised in rabbits against the (C) […] epitope conjugated to KLH at the added cysteine (Covance Research Products). SDH activity was determined by a colorometric spectrophotometric assay measuring the reduction of 2,6-dichlorophenolindophenol.

Another assay concerns SIRT3 WT and KO MEFs. Description: Glucose uptake and lactate secretion in MEFs with oxidation inhibitors. In kind it is cell-based, mouse. Particulars: WT cells; 100 nM rotenone or 50 μg/ml etomoxir, 24 hours. The text has this: (A) Schematic illustrating the metabolites that are increased or decreased in SIRT3 KO MEFs compared to SIRT3 WT MEFs (n=4), p<0.1. Metabolites in parentheses were not measured. PPP, pentose phosphate pathway. The nonoxidative and oxidative arms of the PPP are shown. Levels of glycolytic intermediates (B), TCA cycle intermediates (C), glucose (D), glucose-1-phosphate (E) and ribose-5-phosphate (F). Growth curves of SIRT3 WT and KO MEFs (n=3) cultured in media containing glucose (G) or galactose (H). Error bars, ±SD. (1-N) Glucose uptake and lactate production in SIRT3 WT and KO MEFs (n=6). (I) Relative glucose uptake and (J) lactate production in SIRT3 WT and KO MEFs. (K) Relative glucose uptake and (L) relative lactate production in SIRT3 WT and KO MEFs incubated with or without 100 nM rotenone. (M) Glucose uptake and (N) lactate production in SIRT3 WT and KO MEFs cultured in the presence or absence of 50 μg/ml etomoxir. Cells were treated with drugs for 24 hours before measuring glucose uptake and lactate. All error bars (except growth curves), ±SEM. […]
Metabolites were isolated by methanol extraction from cultured cells and analyzed by liquid chromatography-mass spectrometry (LC-MS). Lactate production was measured using the Lactate Reagent Kit (Trinity Biosciences). […] SDH activity was determined by a colorometric spectrophotometric assay measuring the reduction of 2,6-dichlorophenolindophenol.

The next assay concerns SDHA. Nature of the assay: In vitro deacetylation of SDHA in complex II immunoprecipitates. In kind it is biochemical, mouse. Particulars: with NAD, 2 hours at 37° C.

Description for HIF1α target genes: (B) Fold induction of HIF1αtarget genes in response to hypoxia (n=6) measured by qRT-PCR. The ratio of hypoxic to normoxic gene expression is shown. (C) Fold induction of Glut1 and Hk2 in response to DMOG treatment was measured by qRT-PCR and the ratio of untreated to DMOG-treated gene expression is shown (n=6). […] Significance was assessed by one-way ANOVA. […] Error bars, ±SD.
A series of experiments were performed comparing the effects of hypoxia and DMOG treatment on SIRT3 WT and KO MEFs.

For `CC(=O)N[C@@H](CS)C(=O)O` [NAC, N-acetylcysteine], the “proliferation (growth rate)” value with SIRT3 KO MEFs was “rescued the increased proliferation of SIRT3 KO MEFs”.

Consider `COC(=O)CNC(=O)C(=O)OC` [DMOG, dimethyloxaloylglycine], for which the HIF1α stabilization entry with HIF1α is “stabilize HIF1α”. In the assay on HIF1α target genes, the “expression of HIF1α target genes (Glut1, Hk2)” value is “induce expression of HIF1α target genes”.

For the molecule `CCOC(=O)[C@@]1(CCCCCCOc2ccc(Cl)cc2)CO1` [etomoxir], in the assay on CAMA1 cells, the glucose uptake entry is given as “increased” and the lactate production result was “increased”. Besides, in the assay with SIRT3 WT and KO MEFs, the “glycolysis (glucose uptake and lactate production)” value is given as “increased”.

Take `C=C(C)[C@H]1Cc2c(ccc3c2O[C@@H]2COc4cc(OC)c(OC)cc4[C@@H]2C3=O)O1` [rotenone]: in the assay on CAMA1 cells, the glucose uptake entry is given as “increased” and the lactate production entry is given as “increased”. Further, the “glycolysis (glucose uptake and lactate production)” value in the assay with SIRT3 WT and KO MEFs is “increased”.

B1: SIRT3-H248Y-His: catalytically inactive SIRT3 (protein, UniProt Q9NTG7 1-399, looked up, variant H248Y)
chain: MAFWGWRAAAALRLWGRVVERVEAGGGVGPFQACGCRLVLGGRDDVSAGLRGSHGARGEPLDPARPLQRPPRPEVPRAFRRQPRAAAPSFFFSSIKGGRRSISFSVGASSVVGSGGSSDKGKLSLQDVAELIRARACQRVVVMVGAGISTPSGIPDFRSPGSGLYSNLQQYDLPYPEAIFELPFFFHNPKPFFTLAKELYPGNYKPNVTHYFLRLLHDKGLLLRLYTQNIDGLERVSGIPASKLVEAYGTFASATCTVCQRPFPGEDIRADVMADRVPRCPVCTGVVKPDIVFFGEPLPQRFLLHVVDFPMADLLLILGTSLEVEPFASLTEAVRSSVPRLLINRDLVGPLAWHPRSRDVAQLGDVVHGVESLVELLGWTEEMRDLVQRETGKLDGPDK
modifications: His tag
For the molecule B1, the “deacetylation of SDHA” value with SDHA was “not”.
